From patent US20200338084A1, “INHIBITORS OF LOW MOLECULAR WEIGHT PROTEIN TYROSINE PHOSPHATASE (LMPTP) AND USES THEREOF” (Sanford Burnham Prebys Medical Discovery Institute, priority 2018, published 2020)
pIC50: −log10 of the molar value.

These compounds were tested against T1, human LMPTP-A (Homo sapiens, UniProt P24666) (assay: Enzyme Assay of Inhibition of LMPTP-A). Settings: phosphatase assay, OMFP or pNPP substrate, 50 mM Bis-Tris pH 6.0, 37° C.
T1 sequence (P24666 1-158): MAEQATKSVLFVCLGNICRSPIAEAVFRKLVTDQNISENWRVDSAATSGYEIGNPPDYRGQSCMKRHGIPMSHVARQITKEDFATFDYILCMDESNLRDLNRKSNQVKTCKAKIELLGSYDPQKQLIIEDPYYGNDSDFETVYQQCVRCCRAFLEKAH
Format: biochemical
Experimental: Phosphatase assays were performed in buffer containing 50 mM Bis-Tris, pH 6.0, 1 mM DTT and 0.01% Triton X-100 at 37° C. For assays conducted with 3-O-methylfluorescein phosphate (OMFP) as substrate, fluorescence was monitored continuously at λex=485 and λem=525 nm. For assays conducted with para-nitrophenylphosphate (pNPP) as substrate, the reaction was stopped by addition of 2× reaction volume of 1 M NaOH, and absorbance was measured at 405 nm. IC50 values of compounds disclosed herein were determined from plots of inhibitor concentration versus percentage of enzyme activity. For inhibitor selectivity assays, each PTP was incubated with either 0.4 mM OMFP or 5 mM pNPP in the presence of 40 μM compound or DMSO. […] For the inhibitor reversibility assay, 50 nM human LMPTP-A was pre-incubated with 10 μM of compound disclosed herein or DMSO for 5 min. The enzyme was diluted 100× in phosphatase assay buffer containing 0.4 mM OMFP and fluorescence was measured at the indicated time points.

| pIC50 | Compound |
| --- | --- |
| 4.70 to 6.00 | CNc1ncn(Cc2c(Cl)cccc2Cl)c2ncnc1-2 [[3-(2,6-Dichloro-benzyl)-3H-purin-6-yl]-methyl-amine] |
| 4.70 to 6.00 | CCNc1ncn(Cc2c(Cl)cccc2Cl)c2ncnc1-2 [[3-(2,6-Dichloro-benzyl)-3H-purin-6-yl]-ethyl-amine] |
| ≤ 4.70 | Clc1cccc(Cl)c1Cn1cnc(NCCN2CCCCC2)c2ncnc1-2 [{3-[(2,6-Dichlorophenyl)methyl](3-hydropurin-6-yl)}(2-piperidylethyl)amine] |
| ≥ 6.00 | Nc1ncn(Cc2c(Cl)cccc2Cl)c2nc(C3CCS(=O)(=O)CC3)nc1-2 [4-{6-Amino-3-[(2,6-dichlorophenyl)methyl]-3-hydropurin-8-yl}thiane-1,1-dione] |
| 4.70 to 6.00 | O=C(O)c1ccc(Nc2ncn(Cc3c(Cl)cccc3Cl)c3ncnc2-3)cc1 [4-({3-[(2,6-Dichlorophenyl)methyl]-3-hydropurin-6-yl}amino)benzoic acid] |
| ≥ 6.00 | O=C(Nc1ncn(Cc2c(Cl)cccc2Cl)c2ncnc1-2)c1ccncc1 [N-[3-(2,6-Dichloro-benzyl)-3H-purin-6-yl]-isonicotinamide] |
| ≥ 6.00 | Nc1ncn(Cc2c(Cl)cccc2Cl)c2nc(COc3ccc(Br)cc3)nc1-2 [3-[(2,6-dichlorophenyl)methyl]-8-[(4-bromophenoxy)methyl]-3-hydropurine-6-ylamine] |
| ≥ 6.00 | Nc1ncn(Cc2c(Cl)cccc2Cl)c2nc(C3CCCCC3)nc1-2 [3-[(2,6-Dichlorophenyl)methyl]-8-cyclohexyl-3-hydropurine-6-ylamine] |
| 4.70 to 6.00 | Clc1cccc(Cl)c1Cn1cnc(NCc2ccncc2)c2ncnc1-2 [[3-(2,6-Dichloro-benzyl)-3H-purin-6-yl]-pyridin-4-ylmethyl-amine] |
| ≥ 6.00 | CCCCCCc1nc2c(N)ncn(Cc3c(Cl)cccc3Cl)c-2n1 [3-[(2,6-Dichlorophenyl)methyl]-8-hexyl-3-hydropurine-6-ylamine] |
| 4.70 to 6.00 | O=C(Nc1ncn(Cc2c(Cl)cccc2Cl)c2ncnc1-2)c1ccco1 [Furan-2-carboxylicacid [3-(2,6-dichloro-benzyl)-3H-purin-6-yl]-amide] |
| ≥ 6.00 | 8-[(1E)-2-(4-fluorophenyl)vinyl]-3-[(2,6-dichlorophenyl)methyl]-3-hydropurine-6-ylamine |
| ≥ 6.00 | Nc1ncn(Cc2c(Cl)cccc2Cl)c2nc(-c3cc(F)c(F)cc3F)nc1-2 [3-[(2,6-dichlorophenyl)methyl]-8-(2,4,5-trifluorophenyl)-3-hydropurine-6-ylamine] |
| ≥ 6.00 | Nc1ncn(Cc2c(Cl)cccc2Cl)c2nc(C3=CCCCC3)nc1-2 [3-[(2,6-Dichlorophenyl)methyl]-8-cyclohex-1-enyl-3-hydropurine-6-ylamine] |
| 4.70 to 6.00 | CCCNc1ncn(Cc2c(Cl)cccc2Cl)c2ncnc1-2 [[3-(2,6-Dichloro-benzyl)-3H-purin-6-yl]-propyl-amine] |
| 4.70 to 6.00 | Clc1cccc(Cl)c1Cn1cnc(NCc2cnco2)c2ncnc1-2 [[3-(2,6-Dichloro-benzyl)-3H-purin-6-yl]-oxazol-5-ylmethyl-amine] |
| ≥ 6.00 | Nc1ncn(Cc2c(Cl)cccc2Cl)c2nc(CCc3ccc(F)cc3)nc1-2 [3-[(2,6-dichlorophenyl)methyl]-8-[2-(4-fluorophenyl)ethyl]-3-hydropurine-6-ylamine] |
| 4.70 to 6.00 | CCC(=O)Nc1ncn(Cc2c(Cl)cccc2Cl)c2ncnc1-2 [N-[3-(2,6-Dichloro-benzyl)-3 H-purin-6-yl]-propionamide] |
| ≥ 6.00 | Clc1ccccc1Nc1ncn(Cc2c(Cl)cccc2Cl)c2ncnc1-2 [{3-[(2,6-Dichlorophenyl)methyl](3-hydropurine-6-yl)}(2-chlorophenyl)amine] |
| ≤ 4.70 | Clc1cccc(Cn2cnc(NCc3ccco3)c3ncnc2-3)c1 [[3-(3-Chloro-benzyl)-3H-purin-6-yl]-furan-2-ylmethyl-amine] |
| 4.70 to 6.00 | COCCCNc1ncn(Cc2c(Cl)cccc2Cl)c2ncnc1-2 [[3-(2,6-Dichloro-benzyl)-3H-purin-6-yl]-(3-methoxy-propyl)-amine] |
| 4.70 to 6.00 | COC(=O)c1cccc(Nc2ncn(Cc3c(Cl)cccc3Cl)c3ncnc2-3)c1 [Methyl 3-({3-[(2,6-dichlorophenyl)methyl]-3-hydropurin-6-yl}amino)benzoate] |
| 4.70 to 6.00 | Cc1cccc(Nc2ncn(Cc3c(Cl)cccc3Cl)c3ncnc2-3)c1 [{3-[(2,6-Dichlorophenyl)methyl](3-hydropurin-6-yl)}(3-methylphenyl)amine] |

More lines, now with the values behind:

| Compound | pIC50 |
| --- | --- |
| Cc1cccc(Cl)c1Cn1cnc(N)c2ncnc1-2 [3-(2-chloro-6-methylbenzyl)-3H-purin-6-amine] | ≥ 6.00 |
| Nc1ncn(Cc2ccccc2F)c2ncnc1-2 [3-(2-Fluoro-benzyl)-3H-purin-6-ylamine] | 4.70 to 6.00 |
| Nc1ncn(Cc2c(Cl)ccnc2Cl)c2ncnc1-2 [3-[(2,4-dichloro-3-pyridyl)methyl]-3-hydropurine-6-ylamine] | ≥ 6.00 |
| Nc1ncn(Cc2c(Cl)cccc2Cl)c2nc(-c3cccnc3)nc1-2 [3-[(2,6-Dichlorophenyl)methyl]-8-(3-pyridyl)-3-hydropurine-6-ylamine] | ≥ 6.00 |
| Nc1cccc(Cl)c1Cn1cnc(N)c2ncnc1-2 [3-(2-Amino-6-chlorobenzyl)-3H-purin-6-amine] | 4.70 to 6.00 |
| Cc1ccncc1-c1nc2c(N)ncn(Cc3c(Cl)cccc3Cl)c-2n1 [3-[(2,6-Dichlorophenyl)methyl]-8-(4-methyl(3-pyridyl))-3-hydropurine-6-ylamine] | ≥ 6.00 |
| COc1ccccc1-c1nc2c(N)ncn(Cc3c(Cl)cccc3Cl)c-2n1 [3-[(2,6-Dichlorophenyl)methyl]-8-(2-methoxyphenyl)-3-hydropurine-6-ylamine] | ≥ 6.00 |
| Nc1ncn(Cc2c(Cl)cccc2Cl)c2nc(C3CCC3)nc1-2 [3-[(2,6-Dichlorophenyl)methyl]-8-cyclobutyl-3-hydropurine-6-ylamine] | ≥ 6.00 |
| Nc1ncn(Cc2ccc(Cl)cc2Cl)c2ncnc1-2 [3-(2,4-Dichloro-benzyl)-3H-purin-6-ylamine] | 4.70 to 6.00 |
| COc1ccc(-c2nc3c(N)ncn(Cc4c(Cl)cccc4Cl)c-3n2)cn1 [3-[(2,6-Dichlorophenyl)methyl]-8-(6-methoxy(3-pyridyl))-3-hydropurine-6-ylamine] | ≥ 6.00 |
| Nc1ncn(Cc2c(Cl)cccc2Cl)c2nc(-c3cccc(Cl)c3)nc1-2 [3-[(2,6-Dichlorophenyl)methyl]-8-(3-chlorophenyl)-3-hydropurine-6-ylamine] | ≥ 6.00 |
| COc1ccncc1-c1nc2c(N)ncn(Cc3c(Cl)cccc3Cl)c-2n1 [3-[(2,6-Dichlorophenyl)methyl]-8-(4-methoxy(3-pyridyl))-3-hydropurine-6-ylamine] | ≥ 6.00 |
| NC(=O)c1cccc(Cl)c1Cn1cnc(N)c2ncnc1-2 [2-((6-amino-3H-purin-3-yl)methyl)-3-chlorobenzamide] | ≥ 6.00 |
| Oc1cccc(Nc2ncn(Cc3c(Cl)cccc3Cl)c3ncnc2-3)c1 [3-({3-[(2,6-Dichlorophenyl)methyl]-3-hydropurin-6-yl}amino)phenol] | 4.70 to 6.00 |
| Nc1ncn(Cc2ccc(F)cc2)c2ncnc1-2 [3-(4-fluorobenzyl)-3H-purin-6-amine] | ≤ 4.70 |
| Cc1noc(C)c1Cn1cnc(N)c2ncnc1-2 [3-((3,5-dimethylisoxazol-4-yl)methyl)-3H-purin-6-amine] | 4.70 to 6.00 |
| Nc1ncn(Cc2c(F)cccc2F)c2ncnc1-2 | 4.70 to 6.00 |
| Clc1cccc(Cl)c1Cn1cnc(N2CCCC2)c2ncnc1-2 [3-(2,6-Dichloro-benzyl)-6-pyrrolidin-1-yl-3H-purine] | ≤ 4.70 |
| Nc1ncn(Cc2cccc(O)c2)c2ncnc1-2 [3-(6-Amino-purin-3-ylmethyl)-phenol] | 4.70 to 6.00 |
| Nc1ncn(Cc2cc(Cl)ccc2Cl)c2ncnc1-2 [3-(2,5-Dichloro-benzyl)-3H-purin-6-ylamine] | 4.70 to 6.00 |
| Nc1ncn(Cc2c(Cl)cccc2Cl)c2nc(C(c3ccccc3)c3ccccc3)nc1-2 [3-[(2,6-Dichlorophenyl)methyl]-8-(diphenylmethyl)-3-hydropurine-6-ylamine] | ≥ 6.00 |
| Cn1cc(-c2nc3c(N)ncn(Cc4c(Cl)cccc4Cl)c-3n2)cn1 [3-[(2,6-Dichlorophenyl)methyl]-8-(1-methylpyrazol-4-yl)-3-hydropurine-6-ylamine] | ≥ 6.00 |
| Nc1ncn(Cc2c(Cl)cccc2Cl)c2nc(-c3ccccc3Cl)nc1-2 [3-[(2,6-Dichlorophenyl)methyl]-8-(2-chlorophenyl)-3-hydropurine-6-ylamine] | ≥ 6.00 |
| Nc1ncn(Cc2c(Cl)cccc2C(=O)O)c2ncnc1-2 [2-((6-amino-3H-purin-3-yl)methyl)-3-chlorobenzoic acid] | 4.70 to 6.00 |
| Nc1ncn(Cc2cccc(Cl)c2)c2ncnc1-2 [3-(3-chlorobenzyl)-3H-purin-6-amine] | ≤ 4.70 |
| Oc1ccccc1Nc1ncn(Cc2c(Cl)cccc2Cl)c2ncnc1-2 [2-({3-[(2,6-Dichlorophenyl)methyl]-3-hydropurin-6-yl}amino)phenol] | 4.70 to 6.00 |
| COC(=O)c1cccc(Cl)c1Cn1cnc(N)c2ncnc1-2 [2-(6-Amino-purin-3-ylmethyl)-3-chloro-benzoic acid methyl ester] | ≥ 6.00 |
| Clc1cccc(Cl)c1Cn1cnc(N2CCCCC2)c2ncnc1-2 [3-(2,6-Dichloro-benzyl)-6-piperidin-1-yl-3H-purine] | ≤ 4.70 |
